According to patent US20260200897A1, “4-((5-(3-(4-(PYRIDIN-2-YL)CYCLOPENTYL)-1H-PYRAZOL-3-YL)AMINO)-BENZENESULFONAMIDE DERIVATIVES AND SIMILAR COMPOUNDS AS CDK INHIBITORS FOR THE TREATMENT OF CANCER” (BeOne Medicines I GmbH, priority 2023, published 2026):

Assays:
[1] = biological target: CDK2/Cyclin E1 (Homo sapiens, UniProt P24941); assay: CDK2/Cyclin E1 TR-FRET biochemical assay, 1 mM ATP; conditions: 0.15 μM Rb (Ser780)-biotin substrate, 90 min reaction, Table 2
Procedure: (§1) Compounds disclosed herein were tested for inhibition of CDK2/Cyclin E1 or CDK1/Cyclin B kinase in an assay based on the time-resolved fluorescence-resonance energy transfer (TR-FRET) methodology. The assay was carried out in 384-well low volume black plates in a reaction mixture containing CDK2/Cyclin E1 or CDK1/Cyclin B1, 1 mM ATP for CDK2/Cyclin E1 and CDK1/Cyclin B1, 0.15 μM Rb (Ser780)-biotin substrate and 0-10 μM compound in buffer containing 50 mM HEPES pH7.0, 0.02% NaN3, 0.01% BSA, 0.1 mM Orthovanadate, 50 mM MgCl2, 1 mM DTT and 0.005% Tween-20. The kinase was incubated with compound for 60 minutes at room temperature and the reaction was initiated by the addition of ATP and Rb (Ser780)-biotin substrate. After reaction at room temperature for 90 minutes, an equal volume of stop/detection solution was added according to the manufacture's instruction (Cisbio Bioassays). The stop/detection solution contained Streptavidin-XL665 and Anti-pRb (Ser780) mAb-Eu Cryptate in Detection buffer (Cisbio Bioassays). Plates were incubated at room temperature for 60 minutes, and the TR-FRET signals (ex337 nm, em665 nm/620 nm) were recorded on a PHERAstar FSX plate reader (BMG Labtech). The inhibition percentage of CDK2/Cyclin E1 or CDK1/Cyclin B1 kinase activity in presence of increasing concentrations of compounds was calculated based on the ratio of fluorescence at 665 nm to that at 620 nm. The IC50 for each compound was derived from fitting the data to the four-parameter logistic equation by Dotmatics.

[2] = biological target: CDK1/Cyclin B1 (Homo sapiens, UniProt P06493); assay: CDK1/Cyclin B1 TR-FRET biochemical assay, 1 mM ATP; conditions: 0.15 μM Rb (Ser780)-biotin substrate, 90 min reaction, Table 2
Chain of CDK1/Cyclin B1 (P06493 whole entry): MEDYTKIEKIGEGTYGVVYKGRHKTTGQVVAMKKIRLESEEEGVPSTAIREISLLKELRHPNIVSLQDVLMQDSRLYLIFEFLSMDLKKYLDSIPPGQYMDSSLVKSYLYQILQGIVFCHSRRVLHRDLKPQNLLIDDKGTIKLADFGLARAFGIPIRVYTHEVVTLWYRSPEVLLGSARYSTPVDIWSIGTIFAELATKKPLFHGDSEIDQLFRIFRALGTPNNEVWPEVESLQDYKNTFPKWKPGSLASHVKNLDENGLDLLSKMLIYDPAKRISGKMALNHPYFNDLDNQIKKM
Chain of CDK1/Cyclin B1 (P14635 whole entry partner): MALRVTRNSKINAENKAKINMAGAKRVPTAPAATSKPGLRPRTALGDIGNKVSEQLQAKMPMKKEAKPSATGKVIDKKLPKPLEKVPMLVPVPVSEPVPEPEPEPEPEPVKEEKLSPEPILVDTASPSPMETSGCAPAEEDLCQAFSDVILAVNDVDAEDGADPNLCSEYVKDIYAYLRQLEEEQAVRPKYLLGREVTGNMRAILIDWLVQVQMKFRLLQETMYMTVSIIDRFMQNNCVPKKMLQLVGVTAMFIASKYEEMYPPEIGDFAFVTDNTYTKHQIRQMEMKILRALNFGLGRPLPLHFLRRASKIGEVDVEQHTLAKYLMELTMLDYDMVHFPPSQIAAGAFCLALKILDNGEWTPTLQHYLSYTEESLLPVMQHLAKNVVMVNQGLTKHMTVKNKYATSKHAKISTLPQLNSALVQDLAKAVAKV
Procedure: as §1

CC(C)c1cnc(C2CCC(c3cc(Nc4ccc5c(c4F)CNS5(=O)=O)n[nH]3)C2)o1 (single isomer, unassigned) [Example 109d, 4-fluoro-5-((5-(3-(5-isopropyloxazol-2-yl)cyclopentyl)-1H-pyrazol-3-yl)amino)-2,3-dihydrobenzo[d]isothiazole 1,1-dioxide]
IC50 [1]: 0.158 µM
IC50 [2]: > 10 µM

CC(C)(C)c1ccnc(C2CCC(c3cc(Nc4cc5c(cc4F)S(=O)(=O)NC5)n[nH]3)C2)c1 (centres unmarked) [Example 13, 5-((5-(3-(4-(tert-butyl)pyridin-2-yl)cyclopentyl)-1H-pyrazol-3-yl)amino)-6-fluoro-2,3-dihydrobenzo[d]isothiazole 1,1-dioxide]
IC50 [1]: 0.462 µM
IC50 [2]: > 10 µM

CC(C)(C)c1ccnc([C@@H]2CC[C@H](c3cc(Nc4ccc5c(c4F)CNS5(=O)=O)n[nH]3)C2)n1 (relative stereo) [Example 127, cis-5-((5-(3-(4-(tert-butyl)pyrimidin-2-yl)cyclopentyl)-1H-pyrazol-3-yl)amino)-4-fluoro-2,3-dihydrobenzo[d]isothiazole 1,1-dioxide]
IC50 [1]: 0.0015 µM
IC50 [2]: 0.142 µM

CC(C)(C)c1ccnnc1O[C@H]1CC[C@H](c2cc(Nc3ccc4c(c3F)CNS4(=O)=O)n[nH]2)C1 (relative stereo) [Example 36, trans-5-((5-(3-((4-(tert-butyl)pyridazin-3-yl)oxy)cyclopentyl)-1H-pyrazol-3-yl)amino)-4-fluoro-2,3-dihydrobenzo[d]isothiazole 1,1-dioxide]
IC50 [1]: > 10 µM
IC50 [2]: > 10 µM

CCOC(=O)c1nc(C2CCC(c3cc(Nc4ccc5c(c4F)CNS5(=O)=O)n[nH]3)C2)oc1C(C)C (centres unmarked) [Example 115, ethyl 2-(3-(3-((4-fluoro-1,1-dioxido-2,3-dihydrobenzo[d]isothiazol-5-yl)amino)-1H-pyrazol-5-yl)cyclopentyl)-5-isopropyloxazole-4-carboxylate]
IC50 [1]: 0.264 µM
IC50 [2]: > 10 µM

CC(C)(C)c1cnc(C2CCC(c3cc(Nc4ccc5c(c4F)CN=S5(C)=O)n[nH]3)C2)o1 (centres unmarked) [Example 171, 5-((5-(3-(5-(tert-butyl)oxazol-2-yl)cyclopentyl)-1H-pyrazol-3-yl)amino)-4-fluoro-1-methyl-3H-1λ^4-benzo[d]isothiazole 1-oxide]
IC50 [1]: 0.002 µM
IC50 [2]: 0.348 µM

CC(C)c1cnc(C2CCC(c3cc(Nc4ccc5c(c4F)CNS5(=O)=O)n[nH]3)C2)o1 (single isomer, unassigned) [Example 109b, 4-fluoro-5-((5-(3-(5-isopropyloxazol-2-yl)cyclopentyl)-1H-pyrazol-3-yl)amino)-2,3-dihydrobenzo[d]isothiazole 1,1-dioxide]
IC50 [1]: 0.172 µM
IC50 [2]: > 10 µM

CC(C)(C)c1nnc([C@@H]2CC[C@H](c3cc(Nc4ccc5c(c4F)CS(=O)(=O)N5)n[nH]3)C2)o1 (relative stereo) [Example 146, cis-5-((5-(3-(5-(tert-butyl)-1,3,4-oxadiazol-2-yl)cyclopentyl)-1H-pyrazol-3-yl)amino)-4-fluoro-1,3-dihydrobenzo[c]isothiazole 2,2-dioxide]
IC50 [1]: 0.074 µM
IC50 [2]: > 10 µM

CC(C)(C)c1cccc(C2CCC(c3cc(Nc4ccc5c(c4F)CS(=O)(=O)N5)n[nH]3)C2)n1 (centres unmarked) [Example 158, 5-((5-(3-(6-(tert-butyl)pyridin-2-yl)cyclopentyl)-1H-pyrazol-3-yl)amino)-4-fluoro-1,3-dihydrobenzo[c]isothiazole 2,2-dioxide]
IC50 [1]: 0.084 µM
IC50 [2]: 3.93 µM

Cc1nc(C2CCC(c3cc(Nc4ccc5c(c4F)CS(=O)(=O)C5)n[nH]3)C2)oc1C(C)(C)C (centres unmarked) [Example 177, 5-((5-(3-(5-(tert-butyl)-4-methyloxazol-2-yl)cyclopentyl)-1H-pyrazol-3-yl)amino)-4-fluoro-1,3-dihydrobenzo[c]thiophene 2,2-dioxide]
IC50 [1]: 0.003 µM
IC50 [2]: 0.336 µM
